What all share (test): relative viability (nuclei count vs DMSO), 5 days (fraction); higher = more cells survive
Compound in test [1]: CC1=C(C(=O)N2C=CSC2=N1)CCN3CCC(=C(C4=CC=CC=C4)C5=CC=C(C=C5)F)CC3 + COc1cccc2cc(-c3nc([C@H]4CC[C@H](C(=O)O)CC4)n4ncnc(N)c34)[nH]c12 [OSI-027] (partner 0.5 µM)
Put shortly:
(§1)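 Cells from lung cancer lines were seeded into 1536-well plates and, one day later, dosed by pin tool. Treatments were either a single drug or a fixed dose of an anchor drug with five library-drug doses (not always all listed) in √10 steps. After 5 days, nuclei were stained in a one-step fixation (final 0.05% Triton X-100, 1% formaldehyde, 1 ug/ml Hoechst) and counted on 4× images, and relative viability is the treated-to-vehicle nuclei ratio, as the median of duplicate plates.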

Compound in test [2]: CC1=C(C(=O)N2C=CSC2=N1)CCN3CCC(=C(C4=CC=CC=C4)C5=CC=C(C=C5)F)CC3 + C[C@@H](Oc1cc(-c2cnn(C3CCNCC3)c2)cnc1N)c1c(Cl)ccc(F)c1Cl [Crizotinib] (partner 1 µM)
Put shortly:
as §1

Compound in test [3]: CC1=C(C(=O)N2C=CSC2=N1)CCN3CCC(=C(C4=CC=CC=C4)C5=CC=C(C=C5)F)CC3 + C[C@]1(O)C[C@@H](c2nc(-c3ccc4ccc(-c5ccccc5)nc4c3)c3c(N)nccn32)C1 [Linsitinib] (partner 1 µM)
Put shortly:
as §1

Compound in test [4]: CC1=C(C(=O)N2C=CSC2=N1)CCN3CCC(=C(C4=CC=CC=C4)C5=CC=C(C=C5)F)CC3 + Cc1cc(Nc2cc(N3CCN(C)CC3)nc(Sc3ccc(NC(=O)C4CC4)cc3)n2)n[nH]1 [Tozasertib] (partner 0.1 µM)
Put shortly:
as §1

Take NCI-H1355: the relative viability turned out to be 0.377 in test [1] (first compound 0.08 µM); 0.405 in test [1] (first compound 0.253 µM); 0.355 in test [1] (first compound 0.8 µM); 0.421 in test [1] (first compound 2.53 µM); 0.424 in test [1] (first compound 8 µM); 1.12 in test [2] (first compound 0.08 µM). The relative viability worked out at 1.16 in test [2] (first compound 0.253 µM); 1.04 in test [2] (first compound 0.8 µM); 1.17 in test [2] (first compound 2.53 µM); 0.712 in test [2] (first compound 8 µM); 0.775 in test [3] (first compound 0.08 µM); 0.876 in test [3] (first compound 0.253 µM). In addition, the relative viability in test [3] (first compound 0.8 µM) came out at 0.844; in test [3] (first compound 2.53 µM), 0.856; in test [3] (first compound 8 µM) it was 0.588; in test [4] (first compound 0.08 µM), 0.623; in test [4] (first compound 0.253 µM), 0.544; in test [4] (first compound 0.8 µM) it was 0.52. For the same cell line, the relative viability in test [4] (first compound 2.53 µM) is 0.496; in test [4] (first compound 8 µM) it was 0.532.

Turning to NCI-H596, the relative viability in test [1] (first compound 0.08 µM) came out at 0.668; in test [1] (first compound 0.253 µM), 0.788; in test [1] (first compound 0.8 µM), 0.746; in test [1] (first compound 2.53 µM), 0.827; in test [1] (first compound 8 µM), 0.41; in test [2] (first compound 0.08 µM), 1.01. The relative viability in test [2] (first compound 0.253 µM) was 1.13; in test [2] (first compound 0.8 µM) it was 0.957; in test [2] (first compound 2.53 µM) it was 1.03; in test [2] (first compound 8 µM) it was 0.949; in test [3] (first compound 0.08 µM), 0.935; in test [3] (first compound 0.253 µM), 1.1. For the same cell line, the relative viability in test [3] (first compound 0.8 µM) was 1.2; in test [3] (first compound 2.53 µM), 1.03; in test [3] (first compound 8 µM), 0.755; in test [4] (first compound 0.08 µM) it was 0.757; in test [4] (first compound 0.253 µM), 0.757; in test [4] (first compound 0.8 µM) it was 1.14. Further, the relative viability is 0.877 in test [4] (first compound 2.53 µM) and 0.516 in test [4] (first compound 8 µM).

For NCI-H322M, the relative viability in test [1] (first compound 0.08 µM) amounted to 0.522; in test [1] (first compound 0.253 µM) it was 0.509; in test [1] (first compound 0.8 µM), 0.547; in test [1] (first compound 2.53 µM) it was 0.596; in test [1] (first compound 8 µM), 0.442; in test [2] (first compound 0.08 µM), 0.732. For the same cell line, the relative viability in test [2] (first compound 0.253 µM) is 0.948; in test [2] (first compound 0.8 µM), 0.878; in test [2] (first compound 2.53 µM), 0.696; in test [2] (first compound 8 µM) it was 0.834; in test [3] (first compound 0.08 µM) it was 0.808; in test [3] (first compound 0.253 µM), 0.924. In addition, the relative viability worked out at 0.926 in test [3] (first compound 0.8 µM); 1.01 in test [3] (first compound 2.53 µM); 0.702 in test [3] (first compound 8 µM); 0.487 in test [4] (first compound 0.08 µM); 0.468 in test [4] (first compound 0.253 µM); 0.443 in test [4] (first compound 0.8 µM). Moreover, the relative viability in test [4] (first compound 2.53 µM) is 0.561; in test [4] (first compound 8 µM) it was 0.529.

For the cell line LC-2-ad, the relative viability in test [1] (first compound 0.08 µM) came to 0.876; in test [1] (first compound 0.253 µM), 0.994; in test [1] (first compound 0.8 µM) it was 0.87; in test [1] (first compound 2.53 µM), 0.913; in test [1] (first compound 8 µM), 0.663; in test [2] (first compound 0.08 µM) it was 0.46. Besides, the relative viability in test [2] (first compound 0.253 µM) is 0.342; in test [2] (first compound 0.8 µM) it was 0.415; in test [2] (first compound 2.53 µM), 0.522; in test [2] (first compound 8 µM), 0.475; in test [3] (first compound 0.08 µM), 0.828; in test [3] (first compound 0.253 µM), 0.927. Besides, the relative viability in test [3] (first compound 0.8 µM) was found to be 0.885; in test [3] (first compound 2.53 µM), 0.893; in test [3] (first compound 8 µM) it was 0.663; in test [4] (first compound 0.08 µM) it was 0.489; in test [4] (first compound 0.253 µM) it was 0.487; in test [4] (first compound 0.8 µM) it was 0.468. Also, the relative viability in test [4] (first compound 2.53 µM) amounted to 0.425; in test [4] (first compound 8 µM), 0.418.

On to NCI-H661, for which the relative viability was determined as 0.618 in test [1] (first compound 0.08 µM); 0.659 in test [1] (first compound 0.253 µM); 0.691 in test [1] (first compound 0.8 µM); 0.712 in test [1] (first compound 2.53 µM); 0.627 in test [1] (first compound 8 µM); 0.848 in test [2] (first compound 0.08 µM). Moreover, the relative viability in test [2] (first compound 0.253 µM) was 1.01; in test [2] (first compound 0.8 µM), 1.21; in test [2] (first compound 2.53 µM), 1; in test [2] (first compound 8 µM), 0.801; in test [3] (first compound 0.08 µM) it was 0.581; in test [3] (first compound 0.253 µM), 0.607. Further, the relative viability amounted to 0.675 in test [3] (first compound 0.8 µM); 0.483 in test [3] (first compound 2.53 µM); 0.553 in test [3] (first compound 8 µM); 0.341 in test [4] (first compound 0.08 µM); 0.35 in test [4] (first compound 0.253 µM); 0.36 in test [4] (first compound 0.8 µM). In addition, the relative viability in test [4] (first compound 2.53 µM) was 0.383; in test [4] (first compound 8 µM) it was 0.361.

Regarding LCLC-103H, the relative viability in test [1] (first compound 0.08 µM) came to 0.567; in test [1] (first compound 0.253 µM), 0.605; in test [1] (first compound 0.8 µM) it was 0.401; in test [1] (first compound 2.53 µM) it was 0.462; in test [1] (first compound 8 µM) it was 0.411; in test [2] (first compound 0.08 µM) it was 1.05. Further, the relative viability stood at 1.06 in test [2] (first compound 0.253 µM); 1.04 in test [2] (first compound 0.8 µM); 0.947 in test [2] (first compound 2.53 µM); 0.836 in test [2] (first compound 8 µM); 1.03 in test [3] (first compound 0.08 µM); 1.04 in test [3] (first compound 0.253 µM). Further, the relative viability in test [3] (first compound 0.8 µM) was 0.973; in test [3] (first compound 2.53 µM), 0.924; in test [3] (first compound 8 µM), 0.858; in test [4] (first compound 0.08 µM), 0.437; in test [4] (first compound 0.253 µM), 0.449; in test [4] (first compound 0.8 µM) it was 0.451. Also, the relative viability in test [4] (first compound 2.53 µM) came out at 0.486; in test [4] (first compound 8 µM), 0.532.

Take HOP-62: the relative viability was found to be 0.92 in test [1] (first compound 0.08 µM); 0.771 in test [1] (first compound 0.253 µM); 0.837 in test [1] (first compound 0.8 µM); 0.824 in test [1] (first compound 2.53 µM); 0.488 in test [1] (first compound 8 µM); 1.01 in test [2] (first compound 0.08 µM). Besides, the relative viability in test [2] (first compound 0.253 µM) is 0.939; in test [2] (first compound 0.8 µM), 0.744; in test [2] (first compound 2.53 µM), 0.701; in test [2] (first compound 8 µM) it was 0.442; in test [3] (first compound 0.08 µM), 1.24; in test [3] (first compound 0.253 µM), 0.948. Moreover, the relative viability in test [3] (first compound 0.8 µM) stood at 1; in test [3] (first compound 2.53 µM) it was 1.06; in test [3] (first compound 8 µM), 0.49; in test [4] (first compound 0.08 µM), 0.402; in test [4] (first compound 0.253 µM) it was 0.369; in test [4] (first compound 0.8 µM), 0.305. Further, the relative viability in test [4] (first compound 2.53 µM) came to 0.323; in test [4] (first compound 8 µM), 0.258.

For the origin of these results see the supplement of paper PMC10307832.
